In ChEMBL document CHEMBL1141195, “Carbonic anhydrase inhibitors. The mitochondrial isozyme VB as a new target for sulfonamide and sulfamate inhibitors” (J Med Chem, 2005):

Tests used:
[1] = biological target: Carbonic anhydrase 5B, mitochondrial (Homo sapiens, UniProt Q9Y2D0)
[2] = biological target: Carbonic anhydrase 5A, mitochondrial (Homo sapiens, UniProt P35218)
Carbonic anhydrase 5A, mitochondrial, sequence (P35218 whole entry): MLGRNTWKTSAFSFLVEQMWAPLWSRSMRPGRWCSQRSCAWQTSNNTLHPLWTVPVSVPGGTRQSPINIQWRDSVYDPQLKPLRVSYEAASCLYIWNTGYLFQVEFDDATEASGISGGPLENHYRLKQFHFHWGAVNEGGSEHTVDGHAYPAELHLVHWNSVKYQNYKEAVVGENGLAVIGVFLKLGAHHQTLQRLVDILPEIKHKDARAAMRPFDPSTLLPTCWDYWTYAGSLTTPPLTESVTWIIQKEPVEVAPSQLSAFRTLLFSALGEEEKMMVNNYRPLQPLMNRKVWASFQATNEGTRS

Carbonic anhydrase 5B, mitochondrial, sequence (Q9Y2D0 whole entry): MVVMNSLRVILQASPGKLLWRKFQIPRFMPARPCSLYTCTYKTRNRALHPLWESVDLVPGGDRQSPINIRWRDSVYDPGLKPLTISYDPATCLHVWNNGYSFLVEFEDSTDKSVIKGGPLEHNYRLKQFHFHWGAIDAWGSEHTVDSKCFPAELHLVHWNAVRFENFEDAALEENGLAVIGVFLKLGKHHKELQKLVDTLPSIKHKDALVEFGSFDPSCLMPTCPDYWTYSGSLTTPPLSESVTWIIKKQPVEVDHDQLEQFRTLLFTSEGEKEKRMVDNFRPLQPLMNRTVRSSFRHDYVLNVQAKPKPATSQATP

SMILES	Ki [1] [µM]	Ki [2] [µM]
Nc1nnc(S(N)(=O)=O)s1	2.15	2.3
Nc1ccc(S(N)(=O)=O)cc1I	3.3	9.4
NS(=O)(=O)c1nnc(-c2ccccc2Cl)s1	0.03	0.043
NS(=O)(=O)c1nc2ccc(O)cc2s1	0.041	0.054
Nc1ccccc1S(N)(=O)=O	9.56	15.3
Nc1ccc(S(N)(=O)=O)cc1Br	3.54	7.6
Cn1nc(S(N)(=O)=O)sc1=N	2.08	2.16
NCCc1ccc(S(N)(=O)=O)cc1	8.95	42.4
Nc1cc(C(F)(F)F)c(S(N)(=O)=O)cc1S(N)(=O)=O [2,4-DISULFAMYLTRIFLUOROMETHYLANILINE]	6.56	
CCN[C@H]1CN(CCCOC)S(=O)(=O)c2sc(S(N)(=O)=O)cc21 [BRINZOLAMIDE]	0.03	0.05
CC1(C)O[C@@H]2[C@@H](CO[C@@]3(COS(N)(=O)=O)OC(C)(C)O[C@@H]23)O1 [TOPIRAMATE]	0.03	0.063

Second part, the molecule after the results:

Ki [1] [µM]	Ki [2] [µM]	SMILES
3.4	9.6	NNc1ccccc1S(N)(=O)=O
0.024	0.176	Nc1ccc(S(=O)(=O)NCc2ccc(S(N)(=O)=O)cc2)cc1
6.21		Nc1cc(Cl)c(S(N)(=O)=O)cc1S(N)(=O)=O
0.03	0.034	Nc1ccc(S(=O)(=O)Nc2nnc(S(N)(=O)=O)s2)cc1
10.2	17	Nc1nccc(Nc2ccc(S(N)(=O)=O)cc2)n1
7	8.7	NS(=O)(=O)c1ccc(CCO)cc1
4.22	9.3	Nc1ccc(S(N)(=O)=O)cc1F
7.45	9.3	NS(=O)(=O)c1ccc(CO)cc1
4.3	7.4	Nc1ccc(S(N)(=O)=O)cc1Cl
0.042	0.121	Nc1ccc(S(=O)(=O)NCCc2ccc(S(N)(=O)=O)cc2)cc1
3.5	7.7	NNc1ccc(S(N)(=O)=O)cc1
0.023	0.079	NS(=O)(=O)c1ccc(S(=O)(=O)Nc2cccc3c(Cl)c[nH]c23)cc1
1.56	2.65	NS(=O)(=O)c1ccc(C(=O)O)cc1 [CARZENIDE]
12.3	27.6	NCc1ccc(S(N)(=O)=O)cc1 [MAFENIDE]
2.43	4.7	Cc1ccc(S(N)(=O)=O)cc1 [P-TOLUENESULFONAMIDE]
	32	Nc1ccc(S(N)(=O)=O)cc1 [SULFANILAMIDE]
